In patent publication US20150307938A1, “METHOD TO IDENTIFY A NOVEL CLASS OF IMMUNOLOGIC ADJUVANTS” (Lancell, L.L.C., priority 2011, published 2015):

Test system: skin
Assay: Affymetrix microarray of skin, DBP-4 hr and analogs vs. untreated; gene selection by log-2 fold change, Wilcoxon, Kendall tau (Tables 8, 9)
Format: in vivo, mouse
Conditions: mouse, in vivo

SMILES: CCCCOC(=O)c1ccccc1C(=O)OCCCC [DBP, dibutylphthalate]
- Nrap NM_198059_at ≧2-Fold change: No
- Nusap1 NM_133851_at ≧2-Fold change: No
- Ogfrl1 NM_001081079_at ≧2-Fold change: No
- Olr1 NM_138648_at ≧2-Fold change: No
- Otud7a (NM_130880_at) ≧2-Fold change: Yes
- Oxr1 NM_001130163_at ≧2-Fold change: No
- Oxr1 NM_001130164_at ≧2-Fold change: No
- Oxr1 NM_001130165_at ≧2-Fold change: No
- Oxr1 NM_001130166_at ≧2-Fold change: No
- Pde4b (NM_019840_at) ≧2-Fold change: Yes
- Pdk4 (NM_013743_at) ≧2-Fold change: Yes
- Pgam2 NM_018870_at ≧2-Fold change: No
- Pigyl NM_001082532_at ≧2-Fold change: No
- Plaur (NM_011113_at) ≧2-Fold change: Yes
- Plek (NM_019549_at) ≧2-Fold change: Yes
- Plscr1 (NM_011636_at) ≧2-Fold change: Yes
- Pmaip1 (NM_021451_at) ≧2-Fold change: Yes
- Pparg NM_001127330_at ≧2-Fold change: No
- Ppih NM_001110129_at ≧2-Fold change: No
- Prg4 NM_021400_at ≧2-Fold change: No
- Prss22 (NM_133731_at) ≧2-Fold change: Yes
- Ptges (NM_022415_at) ≧2-Fold change: Yes
- Pyy (NM_145435_at) ≧2-Fold change: Yes
- Rab20 (NM_011227_at) ≧2-Fold change: Yes
- Ramp3 (NM_019511_at) ≧2-Fold change: Yes
- Retnla NM_020509_at ≧2-Fold change: No
- Rffl NM_001007465_at ≧2-Fold change: No
- Rgs1 (NM_015811_at) ≧2-Fold change: Yes
- Rn18s NR_003278_at ≧2-Fold change: No
- Rnf19b (NM_029219_at) ≧2-Fold change: Yes
- Rpl3l NM_025425_at ≧2-Fold change: No
- Saa3 (NM_011315_at) ≧2-Fold change: Yes
- Slc5a1 (NM_019810_at) ≧2-Fold change: Yes
- Slc7a5 (NM_011404_at) ≧2-Fold change: Yes
- Slc10a6 (NM_029415_at) ≧2-Fold change: Yes
- Slc15a3 (NM_023044_at) ≧2-Fold change: Yes
- Slc25a25 (NM_146118_at) ≧2-Fold change: Yes
- Slc34a2 (NM_011402_at) ≧2-Fold change: Yes
- Slc39a8 (NM_026228_at) ≧2-Fold change: Yes
- Slc39a14 NM_001135151_at ≧2-Fold change: No
- Slfn2 (NM_011408_at) ≧2-Fold change: Yes
- Slfn4 (NM_011410_at) ≧2-Fold change: Yes
- Sln NM_025540_at ≧2-Fold change: No
- Slpi (NM_011414_at) ≧2-Fold change: Yes
- Smox (NM_145533_at) ≧2-Fold change: Yes
- Smpx NM_025357_at ≧2-Fold change: No
- Stfa3 (NM_025288_at) ≧2-Fold change: Yes
- Timp1 (NM_011593_at) ≧2-Fold change: Yes
- Tlr2 (NM_011905_at) ≧2-Fold change: Yes
- Tnf (NM_013693_at) ≧2-Fold change: Yes
- Tnfrsf9 NM_001077508_at ≧2-Fold change: No
- Tnfrsf9 NM_001077509_at ≧2-Fold change: No
- Tnfrsf12a (NM_013749_at) ≧2-Fold change: Yes
- Tnni1 NM_021467_at ≧2-Fold change: No
- Trdn NM_029726_at ≧2-Fold change: No
- Trf NM_133977_at ≧2-Fold change: No
- Trp63 NM_001127259_at ≧2-Fold change: No
- Trp63 NM_001127260_at ≧2-Fold change: No
- Trp63 NM_001127262_at ≧2-Fold change: No
- Trp63 NM_001127264_at ≧2-Fold change: No
- Tslp (NM_021367_at) ≧2-Fold change: Yes
- Tslp (NR_033206_at) ≧2-Fold change: Yes
- Ttn NM_028004_at ≧2-Fold change: No
- Tubb6 (NM_026473_at) ≧2-Fold change: Yes
- Uap1 (NM_133806_at) ≧2-Fold change: Yes
- Wbp1 NM_001083922_at ≧2-Fold change: No
- Wbp1 NM_001083923_at ≧2-Fold change: No
- Wfdc2 NM_026323_at ≧2-Fold change: No
- Zc3h12a (NM_153159_at) ≧2-Fold change: Yes
- Zfp36 (NM_011756_at) ≧2-Fold change: Yes
- Zfp68 NM_001044747_at ≧2-Fold change: No
- Zfp187 NM_001013786_at ≧2-Fold change: No
- Zfp518b NM_001081144_at ≧2-Fold change: No
- Zfp593 (NM_024215_at) ≧2-Fold change: Yes
- Zfp943 NM_001025373_at ≧2-Fold change: No
- ≧2-Fold change: No and Yes
- ≧2-Fold change: 1810046J19Rik: No
- ≧2-Fold change: 4933434E20Rik: No
- ≧2-Fold change: Abhd6: No
- ≧2-Fold change: Acad8: No
- ≧2-Fold change: Ak2: No
- ≧2-Fold change: Akr1e1: No
- ≧2-Fold change: Avpr1a: No
- ≧2-Fold change: B4galt1: No
- ≧2-Fold change: Bphl: No
- ≧2-Fold change: Cdkl2: No
- ≧2-Fold change: Cep70: No
- ≧2-Fold change: Cirh1a: No
- ≧2-Fold change: Clec14a: No
- ≧2-Fold change: Commd4: No
- ≧2-Fold change: Cr1l: No
- ≧2-Fold change: Cyth1: No
- ≧2-Fold change: D16Ertd472e: No
- ≧2-Fold change: Dcxr: No
- ≧2-Fold change: Dda1: No
- ≧2-Fold change: Diablo: No
- ≧2-Fold change: Dmap1: No
- ≧2-Fold change: Dnajc4: No
- ≧2-Fold change: Eid1: No
- ≧2-Fold change: Eif6: No
- ≧2-Fold change: Erlec1: No
- ≧2-Fold change: Fam134b: No
- ≧2-Fold change: Fbxo25: No
- ≧2-Fold change: Fgf13: No
- ≧2-Fold change: Flt1: No
- ≧2-Fold change: Fmo5: No
- ≧2-Fold change: Ftsj3: No
- ≧2-Fold change: Gcnt2: No
- ≧2-Fold change: Gmcl1: No
- ≧2-Fold change: Gpn3: No
- ≧2-Fold change: Gstz1: No
- ≧2-Fold change: Gtf2h2: No
- ≧2-Fold change: Gtf3a: No
- ≧2-Fold change: Hsdl2: No
- ≧2-Fold change: Icos: No
- ≧2-Fold change: Ifngr1: No
- ≧2-Fold change: Inpp5d: No
- ≧2-Fold change: Itgax: No
- ≧2-Fold change: Itk: No
- ≧2-Fold change: Krt17: No
- ≧2-Fold change: Map3k14: No
- ≧2-Fold change: Mdp1: No
- ≧2-Fold change: Meis1: No
- ≧2-Fold change: Mkrn3: No
- ≧2-Fold change: Mtcp1: No
- ≧2-Fold change: Mum1: No
- ≧2-Fold change: Myd88: No
- ≧2-Fold change: Nagk: No
- ≧2-Fold change: Ndufaf3: No
- ≧2-Fold change: Nek3: No
- ≧2-Fold change: Nfkb2: No
- ≧2-Fold change: Nicn1: No
- ≧2-Fold change: Nme3: No
- ≧2-Fold change: Ntpcr: No
- ≧2-Fold change: Orc3: No
- ≧2-Fold change: Padi1: No
- ≧2-Fold change: Panx1: No
- ≧2-Fold change: Pfdn2: No
- ≧2-Fold change: Phtf1: No
- ≧2-Fold change: Pigp: No
- ≧2-Fold change: Pkp4: No
- ≧2-Fold change: Plk3: No
- ≧2-Fold change: Polr2g: No
- ≧2-Fold change: Pparg: No
- ≧2-Fold change: Ppp1r7: No
- ≧2-Fold change: Prokr1: No
- ≧2-Fold change: Ptpn1: No
- ≧2-Fold change: Rabgef1: No
- ≧2-Fold change: Rai12: No
- ≧2-Fold change: Rbbp6: No
- ≧2-Fold change: Rpl7l1: No
- ≧2-Fold change: Sema4d: No
- ≧2-Fold change: Siae: No
- ≧2-Fold change: Sirt1: No
- ≧2-Fold change: Slc9a3r1: No
- ≧2-Fold change: Slc30a4: No
- ≧2-Fold change: Slc35a1: No
- ≧2-Fold change: Smarcb1: No
- ≧2-Fold change: Srsf6: No
- ≧2-Fold change: Stx17: No
- ≧2-Fold change: Tmed1: No
- ≧2-Fold change: Tmem208: No
- ≧2-Fold change: Tnfrsf1a: No
- ≧2-Fold change: Tnfrsf9: No
- ≧2-Fold change: Trappc2l: No
- ≧2-Fold change: Tril: No
- ≧2-Fold change: Trim12a: No
- ≧2-Fold change: Trip4: No
- ≧2-Fold change: Trp63: No
- ≧2-Fold change: Trpv2: No
- ≧2-Fold change: Tsn: No
- ≧2-Fold change: Ufc1: No
- ≧2-Fold change: Ulk2: No
- ≧2-Fold change: Wbp1: No
- ≧2-Fold change: Zfp68: No
- ≧2-Fold change: Zfp90: No
- ≧2-Fold change: Zkscan3: No
- ≧2-Fold change: Zkscan6: No
